Measurements published in patent publication US4191760A, “Dibenzodiazepines” (Abbott Laboratories, priority 1978, dated 1980).

Legend:
[1] = test system: brain homovanillic acid (HVA); assay: Effect of Drug Compounds on Brain Level of Homovanillic Acid (HVA); format: in vivo, male Long Evans rats; details: brain HVA as ratio to control group (control 1.0); 0.15 mmoles/kg intraperitoneally; brains minus cerebella two or three hours later; ratios greater than 1.6 of practical significance
Method: Effect of Drug Compounds on Brain Level of Homovanillic Acid (HVA)
In testing for the effectiveness of the present drug compounds on the brain level of homovanillic acid (HVA), the drugs were administered intraperitoneally to male Long Evans rats (Simonsen) usually as aqueous solutions but in certain cases as suspensions in 0.5% methocel in 0.9% saline. The standard testing dose was 0.15 mmoles/kg body weight. The test and control groups consisted of 3-5 and 5 animals, respectively. The analyses were performed on brains (minus cerebella) removed two or three hours later. In the analyses, standard extraction and fluorimetric methods were used.

[2] = test system: Methamphetamine induced hyperactivity; assay: Antagonism of Methamphetamine induced hyperactivity in rats; format: in vivo, Male Long-Evans black hooded rats; details: one hour prior to Methamphetamine 1 mg./kg. intraperitoneal; for ED50: Rattus norvegicus, oral, activity counts at one and two hour intervals, read with sign (+)/(-); for potentiation (+) or antagonism (-) of Methamphetamine: oral 5, 20 and 80 mg./kg., sign printed beside the oral ED50
Method: Effectiveness of Drug Compound on Inhibiting Methamphetamine Antagonism in Rats
Male Long-Evans black hooded rats, weighing between 100 and 150 grams, were administered the test drugs at oral doses of 5, 20 and 80 mg./kg. one hour prior to the administration of Methamphetamine at an intraperitoneal dose of 1 mg./kg. Three animals were tested at each dose level. […] Antagonism of Methamphetamine induced hyperactivity was recorded as digital counts received from the photocells at one and two hour intervals. Placebo controls received a volume dose of the 0.5 carboxymethylcellulose vehicle. The data were evaluated by a one-way analysis of variance computer program.
In the results, a (+) indicates a potentiation of Metamphetamine and a (-) is antagonism of Metamphetamine.

SMILES	HVA Ratio [1]	ED50 [2] [mg/kg]	potentiation (+) or antagonism (-) of Methamphetamine [2]
Clc1ccc2c(c1)N=C(N1CCCN(C3CC3)CC1)c1ccccc1N2 [IX, 8-Chloro-11-(4-cyclopropyl-1-homopiperazinyl)-5H-dibenzo[b,e][1,4]diazepine]	0.9	5	+
Clc1ccc2c(c1)N=C(N1CCN(CC3CC3)CC1)c1ccccc1N2 [VI, 8-Chloro-11-(4-cyclopropylmethyl-piperazinyl)-5H-dibenzo[b,e][1,4]diazepine]	3.4	80	+
Clc1ccc2c(c1)N=C(N1CCN(C3CC3)CC1)c1ccccc1N2 [VII, 8-Chloro-11-(4-cyclopropyl-1-piperazinyl)-5H-dibenzo[b,e][1,4]diazepine]	1.1	60	-
C#CCN1CCN(C2=Nc3cc(Cl)ccc3Nc3ccccc32)CC1 [VIII, 8-Chloro-11-(4-propargyl-1-piperazinyl)-5H-dibenzo[b,e][1,4]diazepine]	0.9	5	+
CN1CCCN(C2=Nc3cc(Cl)ccc3Nc3ccccc32)CC1 [X, 8-Chloro-11-(4-methyl-1-homopiperazinyl)-5H-dibenzo[b,e][1,4]diazepine]	1.0	9	+
O=CN1CCCN(C2=Nc3cc(Cl)ccc3Nc3ccccc32)CC1 [XI, 8-Chloro-11-(4-formyl-1-homopiperazinyl)-5H-dibenzo[b,e][1,4]diazepine]	1.0	80	+
Clc1ccc2c(c1)N=C(N1CCCN(CC3CC3)CC1)c1ccccc1N2 [XII, 8-Chloro-11-(4-cyclopropylmethyl-1-homopiperazine)-5H-dibenzo[b,e][1,4]diazepine]	0.9	80	+
